# Laboratory results taken from patent US20080071116A1, “Modulators of Lysophosphatidic Acid (Lpa) Signaling and the Use Thereof” (THE BOARD OF REGENTS OF THE UNIVERSITY OF TEXAS SYSTEM, priority 2004, published 2008).
# Entries after “also recorded” stand apart in the source; their conditions may differ.
# What was measured:
# [1] = tested on: PC-3 cells; test: lamellipodia formation in PC-3 cells; format: cell-based, human; conditions: 30 μM
# [2] = tested on: PC-3 cells; test: focal adhesion in PC-3 cells; format: cell-based, human; conditions: FIG. 56
# [3] = tested on: DU145 cells; test: focal adhesion in DU145 cells; format: cell-based, human; conditions: FIG. 55
# [4] = tested on: DU145 cells; test: calcium mobilization assay in androgen insensitive prostate cancer DU145 cells; format: cell-based, human
# [5] = tested on: DU145 cells; test: cell growth (cell viability) in DU145 cells; format: cell-based, human
# [6] = tested on: HT29 cells; test: lamellipodia formation in colon cancer HT29 cells; format: cell-based; conditions: for inhibition of 14:0 LPA-induced lamellipodia formation / inhibition of 1% FBS-induced lamellipodia formation / inhibition of 10% FBS-induced lamellipodia formation: HT29
# [7] = tested on: HT29 cells; test: calcium mobilization assay in colon cancer HT29 cells; format: cell-based; conditions: HT29 cells (only express LPA2), FIGS. 21-22
# Protocol: The procedures for these calcium mobilization assays are as followed: OVCAR3 cells and PC-3 cells were cultured in RPMI 1640 medium with 10% FBS (fetal bovine serum). HT29 cells were cultured in DMEM (high glucose) medium with 10% FBS. All cells were cultured at about 37° C. in a humidified atmosphere with 5% CO2. After starvation in serum-free medium for about 12-24 hours, cells were harvested and loaded with about 1 μM of Indo-1 AM in serum-free medium for about 45 min at 37° C. Cells were washed in PBS and resuspended at 2×10^6 cells/ml in a [Ca^2+]i assay buffer (Sodium chloride, NaCl, about 140 mM, potassium chloride, KCl, about 2 mM, magnesium chloride, MgCl2, about 1 mM, calcium chloride, CaCl2, about 2 mM, in about 25 mM HEPES buffer at pH 7.4 with about 10 mM of glucose). Cytoplasmic [Ca^2+]i was determined at an excitation wavelength of about 331 nm and an emission wavelength of 410 nm using a fluorescence spectrophotometer (Hitachi, F-4000). Approximately 3×10^6 cells were used for [Ca^2+]l determination in a stirred quartz cuvette kept at about 37° C. OMPT or 18:1 LPA was dissolved in about 0.1% BSA/PBS solution and applied immediately to the cells. To test other LPA derivatives of the invention, cells were exposed to the derivatives for about 3 minutes or for a period of various times in time course related experiments before a LPA agonist, such as 18:1 LPA, OMPT, or other LPAs was applied into the cuvette.
# The concentration of calcium mobilization giving the half-maximal response (EC50) was obtained from the concentration-response curve fitted to a sigmoidal logistic equation, with the maximal calcium response set to 100% using the GraphPad Prism. Maximal response value is expressed as mean +/−s.e.m. EC50 value is expressed with 95% confidence.
# [8] = tested on: HT29 cells; test: cell growth (cell viability) in HT29 cells; format: cell-based
# [9] = tested on: DU145 cells; test: cell migration of DU145 cells; format: cell-based, human
# [10] = tested on: PC-3 cells; test: cell growth (cell viability) in PC-3 cells; format: cell-based, human; conditions: for inhibition of cell growth (cell viability): PC-3
smiles,measurement,setting,value
"CCCCCCCCCCCCCCCCCC(=O)OC[C@@H](O)COP(=O)(O)OCC(O)CO (mixture of isomers) [18:0 LPG, 1-stearoyl-2-hydroxy-sn-glycero-3-[phospho-rac-(1-glycerol)]]",effect on spontaneously activated lamellipodia,"[1]; PC-3, serum-free, FIGS. 38-40",inhibit spontaneously activated lamellipodia
same,inhibition of 18:1 LPA-induced lamellipodia formation,"[1]; PC-3, FIGS. 42-44",inhibition of 18:1 LPA-induced LPA2 receptor mediated lamellipodia formation
same,reduction of focal adhesion,[2],reduce focal adhesion
same,reduction of focal adhesion,[3],reduce focal adhesion
same,inhibition of 14:0 LPA-induced calcium mobilization,[4],inhibited calcium mobilization
same,reduction of cell viability / cell growth,[5],reduced cell viability
same,inhibition of lamellipodia,"[6]; HT29, serum-free medium, 10 and 30 μM, FIGS. 24-25",inhibits lamellipodia in HT29 cells in a concentration dependent manner
same,inhibition of 14:0 LPA-induced lamellipodia formation,"[6]; 10 μM, FIG. 27",inhibition of 14:0 LPA-induced LPA2 receptor mediated lamellipodia formation
same,inhibition of 1% FBS-induced lamellipodia formation,"[6]; 10 μM, FIG. 30",inhibition of 1% FBS-induced LPA2 receptor mediated lamellipodia formation
same,inhibition of 10% FBS-induced lamellipodia formation,"[6]; 10 μM, FIG. 33",no inhibition
same,inhibition of 14:0 LPA-induced lamellipodia formation,"[6]; 30 μM, FIG. 28",inhibition of 14:0 LPA-induced LPA2 receptor mediated lamellipodia formation
same,inhibition of 1% FBS-induced lamellipodia formation,"[6]; 30 μM, FIG. 31",inhibition of 1% FBS-induced LPA2 receptor mediated lamellipodia formation
same,inhibition of 10% FBS-induced lamellipodia formation,"[6]; 30 μM, FIG. 34",no inhibition
same,inhibition of (18:1) LPA-induced calcium mobilization,[7],inhibited LPA-induced calcium mobilization; also recorded: effective inhibitors/antagonists
same,inhibition of cell growth (cell viability),"[8]; FBS (1%), FIG. 36",inhibition of cell growth (cell viability) at high concentrations
same,inhibition of cell growth (cell viability),"[8]; FBS (10%), FIG. 36",but not in the presence of high concentrations of FBS (10%)
same,inhibition of cell growth (cell viability),"[8]; in the presence of 10 μM of 14:0 LPA, FIG. 35",inhibition of cell growth (cell viability) at high concentrations
same,reduction of cell migration,[9],could reduce cell migration
same,inhibition of cell growth (cell viability),"[10]; in the presence of 10 μM of 18:1 LPA, FIGS. 45-47",inhibition of cell growth (cell viability) at high concentrations
same,inhibition of cell growth (cell viability),"[10]; without LPA, FIGS. 46-47",inhibition of cell growth (cell viability) at high concentrations
same,reduction of cell viability / cell growth,[10]; PC-3 cells,reduced cell viability
